Read-outs that look alike come from different tables or passages of the source.
Legend:
Type in all cases: cell-based
168 GPCRs [1] = biological target: T1, 168 GPCRs (Homo sapiens, UniProt O43603)
T1 construct: host or cells: PathHunter cell lines
T1 sequence (O43603 1-387): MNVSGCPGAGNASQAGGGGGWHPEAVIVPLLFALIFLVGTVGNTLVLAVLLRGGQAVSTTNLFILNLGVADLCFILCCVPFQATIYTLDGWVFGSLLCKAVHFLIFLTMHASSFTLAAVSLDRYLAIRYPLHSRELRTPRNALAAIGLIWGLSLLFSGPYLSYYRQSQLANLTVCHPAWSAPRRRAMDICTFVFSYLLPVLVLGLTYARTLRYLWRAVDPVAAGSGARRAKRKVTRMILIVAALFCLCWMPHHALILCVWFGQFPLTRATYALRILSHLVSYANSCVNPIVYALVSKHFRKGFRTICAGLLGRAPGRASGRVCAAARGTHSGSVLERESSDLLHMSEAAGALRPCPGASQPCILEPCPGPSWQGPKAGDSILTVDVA

168 GPCRs [2] = biological target: T2, 168 GPCRs (Homo sapiens, UniProt P08588)
T2 construct: host or cells: PathHunter cell lines
T2 sequence (P08588 whole entry): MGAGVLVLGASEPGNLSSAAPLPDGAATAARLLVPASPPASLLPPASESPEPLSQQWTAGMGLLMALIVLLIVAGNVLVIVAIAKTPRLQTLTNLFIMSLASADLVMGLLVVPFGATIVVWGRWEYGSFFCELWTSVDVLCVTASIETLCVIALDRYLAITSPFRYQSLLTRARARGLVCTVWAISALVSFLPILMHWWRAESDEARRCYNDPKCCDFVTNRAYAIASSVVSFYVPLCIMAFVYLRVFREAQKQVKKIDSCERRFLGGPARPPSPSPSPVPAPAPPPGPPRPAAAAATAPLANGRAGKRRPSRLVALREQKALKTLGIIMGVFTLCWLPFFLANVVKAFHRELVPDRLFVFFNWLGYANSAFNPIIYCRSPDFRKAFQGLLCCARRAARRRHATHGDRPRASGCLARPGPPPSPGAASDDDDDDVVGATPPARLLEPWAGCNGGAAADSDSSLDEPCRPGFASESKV

168 GPCRs [3] = biological target: T3, 168 GPCRs (Homo sapiens, UniProt P21452); details: TACR2
T3 construct: host or cells: PathHunter cell lines
T3 sequence (P21452 1-398): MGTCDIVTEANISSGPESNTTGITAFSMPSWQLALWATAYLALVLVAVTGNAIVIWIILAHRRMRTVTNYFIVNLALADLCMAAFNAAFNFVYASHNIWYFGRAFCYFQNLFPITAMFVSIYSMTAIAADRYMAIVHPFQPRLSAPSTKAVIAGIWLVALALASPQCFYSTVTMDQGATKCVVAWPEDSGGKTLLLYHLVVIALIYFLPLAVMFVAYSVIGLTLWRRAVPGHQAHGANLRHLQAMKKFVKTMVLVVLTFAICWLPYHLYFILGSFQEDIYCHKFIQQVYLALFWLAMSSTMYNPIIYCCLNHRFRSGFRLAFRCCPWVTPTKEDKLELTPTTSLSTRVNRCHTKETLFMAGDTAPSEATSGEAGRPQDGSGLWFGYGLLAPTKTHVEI

168 GPCRs [4] = biological target: T4, 168 GPCRs (Homo sapiens, UniProt P21453)
T4 construct: host or cells: PathHunter cell lines
T4 sequence (P21453 whole entry): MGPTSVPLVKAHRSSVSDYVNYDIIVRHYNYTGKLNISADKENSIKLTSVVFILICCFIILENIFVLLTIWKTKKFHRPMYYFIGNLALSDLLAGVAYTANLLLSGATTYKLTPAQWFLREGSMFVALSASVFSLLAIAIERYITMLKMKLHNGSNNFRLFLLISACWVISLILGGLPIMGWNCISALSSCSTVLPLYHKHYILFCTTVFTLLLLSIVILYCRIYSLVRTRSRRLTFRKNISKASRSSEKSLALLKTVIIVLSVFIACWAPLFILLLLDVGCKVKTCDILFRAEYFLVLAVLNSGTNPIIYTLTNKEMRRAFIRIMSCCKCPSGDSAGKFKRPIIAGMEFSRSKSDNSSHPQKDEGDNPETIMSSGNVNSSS

168 GPCRs [5] = biological target: T5, 168 GPCRs (Homo sapiens, UniProt P21730)
T5 construct: host or cells: PathHunter cell lines
T5 sequence (P21730 1-350): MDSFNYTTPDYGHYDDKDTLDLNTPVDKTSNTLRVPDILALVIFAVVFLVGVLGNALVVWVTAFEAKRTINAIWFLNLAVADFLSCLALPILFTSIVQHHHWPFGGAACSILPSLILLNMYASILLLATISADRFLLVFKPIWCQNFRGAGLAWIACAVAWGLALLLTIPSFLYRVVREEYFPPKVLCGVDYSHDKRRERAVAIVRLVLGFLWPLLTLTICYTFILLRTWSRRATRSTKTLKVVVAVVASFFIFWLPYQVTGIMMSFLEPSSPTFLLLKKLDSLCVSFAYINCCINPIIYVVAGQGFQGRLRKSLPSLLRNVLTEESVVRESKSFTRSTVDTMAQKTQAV

168 GPCRs [6] = biological target: T6, 168 GPCRs (Homo sapiens, UniProt P30518)
T6 construct: host or cells: PathHunter cell lines
T6 sequence (P30518 whole entry): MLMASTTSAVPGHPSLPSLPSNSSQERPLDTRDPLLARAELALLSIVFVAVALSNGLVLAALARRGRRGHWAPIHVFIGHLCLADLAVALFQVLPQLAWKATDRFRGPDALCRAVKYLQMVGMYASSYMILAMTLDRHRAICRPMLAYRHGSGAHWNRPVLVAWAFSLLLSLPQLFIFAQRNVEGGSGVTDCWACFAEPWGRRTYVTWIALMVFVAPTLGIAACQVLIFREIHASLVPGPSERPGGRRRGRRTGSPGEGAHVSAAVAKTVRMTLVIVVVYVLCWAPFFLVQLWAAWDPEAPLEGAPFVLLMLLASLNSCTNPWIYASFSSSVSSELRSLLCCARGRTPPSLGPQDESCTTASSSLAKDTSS

168 GPCRs [7] = biological target: T7, 168 GPCRs (Homo sapiens, UniProt P41145); details: OPRK1
T7 construct: host or cells: PathHunter cell lines
T7 sequence (P41145 whole entry): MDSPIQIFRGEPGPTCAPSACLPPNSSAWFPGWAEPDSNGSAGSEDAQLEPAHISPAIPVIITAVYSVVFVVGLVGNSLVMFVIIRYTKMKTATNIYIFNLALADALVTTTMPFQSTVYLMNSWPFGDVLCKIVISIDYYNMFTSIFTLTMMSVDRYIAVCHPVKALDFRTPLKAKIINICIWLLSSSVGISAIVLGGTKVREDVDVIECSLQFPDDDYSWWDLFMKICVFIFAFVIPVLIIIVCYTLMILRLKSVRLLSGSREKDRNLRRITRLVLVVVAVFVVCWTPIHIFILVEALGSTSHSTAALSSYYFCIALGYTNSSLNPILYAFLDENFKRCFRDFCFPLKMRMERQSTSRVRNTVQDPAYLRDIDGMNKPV

168 GPCRs [8] = biological target: T8, 168 GPCRs (Homo sapiens, UniProt P41968); details: MC3R
T8 construct: host or cells: PathHunter cell lines
T8 sequence (P41968 whole entry): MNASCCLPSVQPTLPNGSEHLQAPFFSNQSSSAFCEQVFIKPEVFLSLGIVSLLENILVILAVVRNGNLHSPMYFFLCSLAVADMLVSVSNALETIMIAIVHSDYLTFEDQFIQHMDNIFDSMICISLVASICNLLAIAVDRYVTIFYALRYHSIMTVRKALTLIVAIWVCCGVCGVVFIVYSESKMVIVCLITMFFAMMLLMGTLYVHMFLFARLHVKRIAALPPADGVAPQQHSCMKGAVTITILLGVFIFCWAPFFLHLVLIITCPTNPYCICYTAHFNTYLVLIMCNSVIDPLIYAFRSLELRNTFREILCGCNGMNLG

168 GPCRs [9] = biological target: T9, 168 GPCRs (Homo sapiens, UniProt Q16602)
T9 construct: host or cells: PathHunter cell lines
T9 sequence (Q16602 23-461): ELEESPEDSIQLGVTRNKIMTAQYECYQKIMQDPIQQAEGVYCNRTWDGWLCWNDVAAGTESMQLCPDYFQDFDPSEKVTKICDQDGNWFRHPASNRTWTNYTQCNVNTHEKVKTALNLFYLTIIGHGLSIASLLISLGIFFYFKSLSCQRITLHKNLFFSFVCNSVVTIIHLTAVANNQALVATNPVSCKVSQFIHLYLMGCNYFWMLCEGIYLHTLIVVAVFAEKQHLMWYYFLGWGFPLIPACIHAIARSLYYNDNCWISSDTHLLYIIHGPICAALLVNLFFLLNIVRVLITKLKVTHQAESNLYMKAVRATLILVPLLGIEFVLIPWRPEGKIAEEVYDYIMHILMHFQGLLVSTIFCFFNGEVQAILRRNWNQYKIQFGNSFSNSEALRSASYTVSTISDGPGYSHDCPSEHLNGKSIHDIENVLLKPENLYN

168 GPCRs [10] = biological target: T10, 168 GPCRs (Homo sapiens, UniProt Q8TCW9); details: PROKR1
T10 construct: host or cells: PathHunter cell lines
T10 sequence (Q8TCW9 whole entry): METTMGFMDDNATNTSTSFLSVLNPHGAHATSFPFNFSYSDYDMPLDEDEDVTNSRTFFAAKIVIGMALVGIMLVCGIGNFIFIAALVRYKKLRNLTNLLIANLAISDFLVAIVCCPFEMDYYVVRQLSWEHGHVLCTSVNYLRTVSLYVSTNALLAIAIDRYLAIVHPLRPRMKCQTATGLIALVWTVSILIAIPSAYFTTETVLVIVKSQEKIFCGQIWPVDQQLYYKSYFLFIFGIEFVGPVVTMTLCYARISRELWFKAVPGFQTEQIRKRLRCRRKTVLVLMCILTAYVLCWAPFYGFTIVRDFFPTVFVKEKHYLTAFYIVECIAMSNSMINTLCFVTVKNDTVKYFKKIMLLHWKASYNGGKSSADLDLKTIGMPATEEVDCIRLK

CNC(C)Cc1ccc2c(c1)OCO2 (stereo not drawn) [MDMA, 3,4-Methylenedioxy methamphetamine, reference compound]
% Agonist Activity (168 GPCRs [1]; GALR2, 1 uM): -2.9% | % Antagonist Activity (168 GPCRs [1]; GALR2, 1 uM): -5.1% | % Agonist Activity (168 GPCRs [1]; GALR2, 10 uM): -3% | % Antagonist Activity (168 GPCRs [1]; GALR2, 10 uM): -7.3% | % Agonist Activity (168 GPCRs [2]; ADRB1, 1 uM): 0.6% | % Antagonist Activity (168 GPCRs [2]; ADRB1, 1 uM): 2% | % Agonist Activity (168 GPCRs [2]; ADRB1, 10 uM): 0.5% | % Antagonist Activity (168 GPCRs [2]; ADRB1, 10 uM): 1.9% | % Agonist Activity (168 GPCRs [3]; Conc 1 uM): 0.1% | % Antagonist Activity (168 GPCRs [3]; Conc 1 uM): 12.5% | % Agonist Activity (168 GPCRs [3]; Conc 10 uM): -0.1% | % Antagonist Activity (168 GPCRs [3]; Conc 10 uM): 10.7% | % Agonist Activity (168 GPCRs [4]; EDG1, 1 uM): 0% | % Antagonist Activity (168 GPCRs [4]; EDG1, 1 uM): 3.5% | % Agonist Activity (168 GPCRs [4]; EDG1, 10 uM): -0.6% | % Antagonist Activity (168 GPCRs [4]; EDG1, 10 uM): -12.4% | % Agonist Activity (168 GPCRs [5]; C5aR1, 1 uM): -1.1% | % Antagonist Activity (168 GPCRs [5]; C5aR1, 1 uM): -5.5% | % Agonist Activity (168 GPCRs [5]; C5aR1, 10 uM): -1.1% | % Antagonist Activity (168 GPCRs [5]; C5aR1, 10 uM): -4.3% | % Agonist Activity (168 GPCRs [6]; AVPR2, 1 uM): -2.9% | % Antagonist Activity (168 GPCRs [6]; AVPR2, 1 uM): -7.8% | % Agonist Activity (168 GPCRs [6]; AVPR2, 10 uM): -2.2% | % Antagonist Activity (168 GPCRs [6]; AVPR2, 10 uM): -0.4% | % Agonist Activity (168 GPCRs [7]; Conc 1 uM): 1.7% | % Antagonist Activity (168 GPCRs [7]; Conc 1 uM): 16.7% | % Agonist Activity (168 GPCRs [7]; Conc 10 uM): 0.5% | % Antagonist Activity (168 GPCRs [7]; Conc 10 uM): 18.1% | % Agonist Activity (168 GPCRs [8]; 1 uM): 0.7% | % Antagonist Activity (168 GPCRs [8]; 1 uM): 5.9% | % Agonist Activity (168 GPCRs [8]; 10 uM): 1.3% | % Antagonist Activity (168 GPCRs [8]; 10 uM): 1.9% | % Agonist Activity (168 GPCRs [9]; CALCRL-RAMP1, 1 uM): 0.3% | % Antagonist Activity (168 GPCRs [9]; CALCRL-RAMP1, 1 uM): 6.8% | % Agonist Activity (168 GPCRs [9]; CALCRL-RAMP1, 10 uM): -0.6% | % Antagonist Activity (168 GPCRs [9]; CALCRL-RAMP1, 10 uM): 8.1% | % Agonist Activity (168 GPCRs [9]; CALCRL-RAMP2, 1 uM): -1% | % Antagonist Activity (168 GPCRs [9]; CALCRL-RAMP2, 1 uM): 28.7% | % Agonist Activity (168 GPCRs [9]; CALCRL-RAMP2, 10 uM): 0.9% | % Antagonist Activity (168 GPCRs [9]; CALCRL-RAMP2, 10 uM): 30.8% | % Agonist Activity (168 GPCRs [9]; CALCRL-RAMP3, 1 uM): -0.9% | % Antagonist Activity (168 GPCRs [9]; CALCRL-RAMP3, 1 uM): -8.1% | % Agonist Activity (168 GPCRs [9]; CALCRL-RAMP3, 10 uM): -1.4% | % Antagonist Activity (168 GPCRs [9]; CALCRL-RAMP3, 10 uM): -13% | % Agonist Activity (168 GPCRs [10]; Conc 1 uM): 0.3% | % Antagonist Activity (168 GPCRs [10]; Conc 1 uM): -8.7% | % Agonist Activity (168 GPCRs [10]; Conc 10 uM): 0.7% | % Antagonist Activity (168 GPCRs [10]; Conc 10 uM): 8.5%

CNC(C)C(=O)c1ccc2c(c1)OCO2 (stereo not drawn) [methylone]
% Agonist Activity (168 GPCRs [1]; GALR2, 1 uM): 3.4% | % Antagonist Activity (168 GPCRs [1]; GALR2, 1 uM): 7% | % Agonist Activity (168 GPCRs [1]; GALR2, 10 uM): 1.9% | % Antagonist Activity (168 GPCRs [1]; GALR2, 10 uM): 1.5% | % Agonist Activity (168 GPCRs [2]; ADRB1, 1 uM): -1.7% | % Antagonist Activity (168 GPCRs [2]; ADRB1, 1 uM): -0.8% | % Agonist Activity (168 GPCRs [2]; ADRB1, 10 uM): -1.4% | % Antagonist Activity (168 GPCRs [2]; ADRB1, 10 uM): -1.2% | % Agonist Activity (168 GPCRs [3]; Conc 1 uM): -1.9% | % Antagonist Activity (168 GPCRs [3]; Conc 1 uM): 10% | % Agonist Activity (168 GPCRs [3]; Conc 10 uM): -3.3% | % Antagonist Activity (168 GPCRs [3]; Conc 10 uM): 9.1% | % Agonist Activity (168 GPCRs [4]; EDG1, 1 uM): 0.1% | % Antagonist Activity (168 GPCRs [4]; EDG1, 1 uM): 12.4% | % Agonist Activity (168 GPCRs [4]; EDG1, 10 uM): 0.4% | % Antagonist Activity (168 GPCRs [4]; EDG1, 10 uM): 10.5% | % Agonist Activity (168 GPCRs [5]; C5aR1, 1 uM): -1% | % Antagonist Activity (168 GPCRs [5]; C5aR1, 1 uM): 8.9% | % Agonist Activity (168 GPCRs [5]; C5aR1, 10 uM): -1.3% | % Antagonist Activity (168 GPCRs [5]; C5aR1, 10 uM): 5% | % Agonist Activity (168 GPCRs [6]; AVPR2, 1 uM): -0.9% | % Antagonist Activity (168 GPCRs [6]; AVPR2, 1 uM): -2.7% | % Agonist Activity (168 GPCRs [6]; AVPR2, 10 uM): 1% | % Antagonist Activity (168 GPCRs [6]; AVPR2, 10 uM): -14.8% | % Agonist Activity (168 GPCRs [7]; Conc 1 uM): -6.3% | % Antagonist Activity (168 GPCRs [7]; Conc 1 uM): 11.8% | % Agonist Activity (168 GPCRs [7]; Conc 10 uM): -4.1% | % Antagonist Activity (168 GPCRs [7]; Conc 10 uM): 10.4% | % Agonist Activity (168 GPCRs [8]; 1 uM): -3.2% | % Antagonist Activity (168 GPCRs [8]; 1 uM): -5.7% | % Agonist Activity (168 GPCRs [8]; 10 uM): -1.8% | % Antagonist Activity (168 GPCRs [8]; 10 uM): 0.3% | % Agonist Activity (168 GPCRs [9]; CALCRL-RAMP1, 1 uM): -2.6% | % Antagonist Activity (168 GPCRs [9]; CALCRL-RAMP1, 1 uM): 4.7% | % Agonist Activity (168 GPCRs [9]; CALCRL-RAMP1, 10 uM): -0.2% | % Antagonist Activity (168 GPCRs [9]; CALCRL-RAMP1, 10 uM): 7% | % Agonist Activity (168 GPCRs [9]; CALCRL-RAMP2, 1 uM): 0.1% | % Antagonist Activity (168 GPCRs [9]; CALCRL-RAMP2, 1 uM): 19.1% | % Agonist Activity (168 GPCRs [9]; CALCRL-RAMP2, 10 uM): 2.8% | % Antagonist Activity (168 GPCRs [9]; CALCRL-RAMP2, 10 uM): 7% | % Agonist Activity (168 GPCRs [9]; CALCRL-RAMP3, 1 uM): -2.2% | % Antagonist Activity (168 GPCRs [9]; CALCRL-RAMP3, 1 uM): -18.5% | % Agonist Activity (168 GPCRs [9]; CALCRL-RAMP3, 10 uM): -2.2% | % Antagonist Activity (168 GPCRs [9]; CALCRL-RAMP3, 10 uM): -7.5% | % Agonist Activity (168 GPCRs [10]; Conc 1 uM): -1.3% | % Antagonist Activity (168 GPCRs [10]; Conc 1 uM): 8.7% | % Agonist Activity (168 GPCRs [10]; Conc 10 uM): -2.8% | % Antagonist Activity (168 GPCRs [10]; Conc 10 uM): 3.3%
